Series [1] is classed as in vivo, male Sprague-Dawley rats. The settings on record: oral, rats; for bioavailability after N-XBSD administration compared to the free drugs: same administration concentration.
The subject of the next series is P-gp. The settings on record: cited from earlier work.

Here are results for two compounds from paper PMC11012829 (International Journal of Nanomedicine, 2024).

Turning to `OC[C@H]1O[C@@H](Oc2cc(O)cc(/C=C/c3ccc(O[C@@H]4O[C@H](CO)[C@@H](O)[C@H](O)[C@H]4O)cc3O)c2)[C@H](O)[C@@H](O)[C@@H]1O` [Mulberroside A, mulberroside A], the “mean AUC0-t increased in the N-XBSD group compared to the free drugs” value in series [1] (N-XBSD vs free drugs) came out at 122.73%. In addition, in series [1], the “bioavailability after N-XBSD administration compared to the free drugs” value is on record as “significantly higher”. The P-gp substrate entry in the series with P-gp was “substrates of P-gp”.

`O=C1C[C@@H](c2ccc(O[C@@H]3O[C@H](CO)[C@@H](O)[C@H](O)[C@H]3O)cc2)Oc2cc(O)ccc21` [Liquiritin, liquiritin]: the “mean AUC0-t in the N-XBSD group versus free drugs group” value in series [1] (p<0.05) is “significantly higher”. The “bioavailability after N-XBSD administration compared to the free drugs” value in series [1] is reported as “significantly higher”. Besides, the P-gp substrate result in the series with P-gp is “substrates of P-gp”.
